Data from ChEMBL document CHEMBL6087419, “Structural insights into tryptamine psychedelics: The role of hydroxyl indole ring site in 5-HT2A receptor activation and psychedelic-like activity” (Eur J Med Chem, 2025).
The source made the active and inactive calls. No cut-off for these calls is given here.

Tests used:
Mus musculus [1] = experiment: Psychedelic like activity in male BALB/c mouse assessed as induction of head-twitch responses at 1 mg/kg, ip measured after 30 mins by video recording analysis; type: functional, organism-based
Mus musculus [2] = experiment: Psychedelic like activity in male BALB/c mouse assessed as induction of head-twitch responses administered intraperitoneally and measured after 30 mins by video recording analysis; type: functional; details: 0.5 h, route ip
Mus musculus [3] = experiment: Psychedelic like activity in male BALB/c mouse assessed as induction of head-twitch responses at 3 to 10 mg/kg, ip measured after 30 mins by video recording analysis; type: functional, organism-based; details: dose 3-10 mg/kg

Structure (SMILES)	Activity (Mus musculus [1])	ED50 (Mus musculus [2]) [mg/kg]	Activity (Mus musculus [3])
CN(C)CCc1c[nH]c2c(O)cccc12	inactive		
CN(C)CCc1c[nH]c2cc(O)ccc12	inactive		
CN(C)CCc1c[nH]c2ccc(O)cc12	Active		
CN(C)CCc1c[nH]c2cccc(O)c12 [PSILOCIN]	Active	0.86	inactive
